Where a SMILES comes first, the peptide text is derived from it. Bridges are numbered along the chain shown (N, C = ends). [ ]: non-standard residue; d: D form. Trp(6-Cl) = N[C@@H](Cc1c[nH]c2cc(Cl)ccc12)C(=O)O; NMePhe(2,4-Me2) = CN[C@@H](Cc1ccc(C)cc1C)C(=O)O; dNMePhe(2,4-Me2) = CN[C@H](Cc1ccc(C)cc1C)C(=O)O; NMePhe(2-Me) = CN[C@@H](Cc1ccccc1C)C(=O)O; NMeNva = CCC[C@H](NC)C(=O)O

T2 sequence (Q00987 whole entry): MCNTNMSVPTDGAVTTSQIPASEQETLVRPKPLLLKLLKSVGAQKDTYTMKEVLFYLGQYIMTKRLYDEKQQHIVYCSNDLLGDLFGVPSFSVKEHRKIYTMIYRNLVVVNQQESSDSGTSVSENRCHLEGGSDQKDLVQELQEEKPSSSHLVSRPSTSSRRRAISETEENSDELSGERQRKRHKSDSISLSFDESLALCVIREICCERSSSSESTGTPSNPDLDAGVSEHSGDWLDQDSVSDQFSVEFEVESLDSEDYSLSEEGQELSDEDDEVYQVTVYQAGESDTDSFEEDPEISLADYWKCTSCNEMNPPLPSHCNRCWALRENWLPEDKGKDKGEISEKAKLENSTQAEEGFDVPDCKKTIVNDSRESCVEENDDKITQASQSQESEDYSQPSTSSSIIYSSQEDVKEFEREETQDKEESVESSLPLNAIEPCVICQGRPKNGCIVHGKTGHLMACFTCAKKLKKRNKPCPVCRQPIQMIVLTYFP

The target in the first series is T1, MCL-1 (Homo sapiens, UniProt Q07820).
T1 construct: GST
T1 sequence (Q07820 whole entry, species assumed): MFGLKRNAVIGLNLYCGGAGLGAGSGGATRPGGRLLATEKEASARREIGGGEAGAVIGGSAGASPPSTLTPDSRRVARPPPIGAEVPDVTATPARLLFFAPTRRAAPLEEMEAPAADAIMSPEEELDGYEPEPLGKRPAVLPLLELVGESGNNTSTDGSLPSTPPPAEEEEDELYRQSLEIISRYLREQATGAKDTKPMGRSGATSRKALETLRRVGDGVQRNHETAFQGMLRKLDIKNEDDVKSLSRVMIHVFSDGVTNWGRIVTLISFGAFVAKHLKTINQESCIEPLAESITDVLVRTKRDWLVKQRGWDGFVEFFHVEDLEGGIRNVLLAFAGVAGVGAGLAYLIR
Nature of the series: MCL-1 assay (HTRF, Anti-GST-Tb). It is filed as binding. As to conditions: 10-dose singlet, 3-fold serial dilution starting at 200 uM; HTRF signal after 60 min. As to the method:
MCL-1: The compounds were tested in 10-dose IC50 singlet with a 3-fold serial dilution starting at 200 uM. Compounds in DMSO were added to enzyme solution by using Acoustic Technology. Compounds were incubated with enzyme for 10 min. at room temperature. Respective compounds were then added, and the mixture incubated for another 10 min. Finally, Anti-GST-Tb was added. After 60 min incubation, the HTRF signal was measured.
For orientation: In TR-FRET formats the signal depends on donor and acceptor labels being close together.
As usually defined, the IC50 is the midpoint of a concentration-inhibition curve. Turning to `Cc1ccccc1CN1CC(=O)N[C@H](C(C)(C)C)C(=O)NCc2cccc(c2)CC(=O)N[C@H](Cc2ccc(Cl)c(Cl)c2)CC1=O` [Compound 11], the half-inhibitory concentration (IC50) is 4580 nM. Regarding `COc1cc(CN2CC(=O)NCc3ccccc3C(=O)N[C@@H](Cc3ccc(Cl)c(Cl)c3)C(=O)N(CCc3ccc(F)cc3)CC2=O)cc(OC)c1` [Compound 16], the half-inhibitory concentration (IC50) amounted to 13500 nM. Compound `COc1cccc(CCN2CC(=O)N[C@H]3CC[C@H](CC3)CC(=O)N(CCc3ccc(C(F)(F)F)cc3)CC(=O)N(Cc3ccc(Cl)c(Cl)c3)CC2=O)c1` [Compound 18] had an IC50 of 28200 nM. As for `CCOCCN1CC(=O)NCc2ccccc2C(=O)N[C@@H](Cc2ccc(Cl)c(Cl)c2)C(=O)N(CCc2ccc(F)cc2)CC1=O` [Compound 19], 40600 nM corresponded to half-maximal inhibition (IC50). The IC50 values of the last two compounds are within 1.5-fold of each other.

`COc1cccc(CCN2CC(=O)N[C@@H](C(C)C)CC(=O)NCc3cccc(c3)CC(=O)N[C@@H](Cc3ccc(Cl)c(Cl)c3)C2=O)c1` [Compound 29] returned an IC50 of 22800 nM.

Turning to `Cc1ccc(C[C@@H]2NC(=O)CCCCNC(=O)CN(CCOc3c(C)cccc3C)C(=O)[C@@H](Cc3ccc(Cl)c(Cl)c3)N(C)C2=O)cc1` [Compound 119], the IC50 is 18900 nM. The same measure, in the same setting: with `CN1C(=O)CN(Cc2cccc(Br)c2)C(=O)CCCCNC(=O)[C@@H](Cc2ccc(C(C)(C)C)cc2)NC(=O)[C@@H]1Cc1ccc(Cl)c(Cl)c1` [Compound 121] the figure was 50100 nM; with `CCC(CC)[C@H]1NC(=O)CN(Cc2ccc(Cl)c(Cl)c2)C(=O)[C@H](Cc2ccc(C(C)(C)C)cc2)NC(=O)CCCCNC1=O` [Compound 122], 12300 nM.

A further series has as its target T2, MDM2 (Homo sapiens, UniProt Q00987).
T2 construct: purchased PerkinElmer AL3168C
Kind of series: MDM2 assay (commercial alphalisa kit, PerkinElmer AL3168C). The following applies: alphalisa kit per manufacturer's instructions; quantity not given. Format: binding. As to the method: MDM2: The assay was performed using a commercially available alphalisa assay kit from PerkinElmer (part number AL3168C) following the manufacturer's instructions.
Background: In Alpha technology, singlet oxygen from a donor bead excites a nearby acceptor bead.
As to `CCC[C@H]1C(=O)N[C@@H](Cc2c[nH]c3cc(Cl)ccc23)C(=O)N(C)[C@@H](Cc2ccc(C)cc2C)C(=O)N[C@H](C(N)=O)CSCC(=O)N1C` [Compound 32] ({CH2CO}-[NMeNva][Trp(6-Cl)][NMePhe(2,4-Me2)]C-NH2; thioether N-4), the IC50 is 100000 nM. With `Cc1ccc(C[C@@H]2C(=O)N[C@@H](Cc3c[nH]c4cc(Cl)ccc34)C(=O)N(C)[C@@H](Cc3ccccc3C)C(=O)N[C@H](C(N)=O)CSCC(=O)N2C)c(C)c1` [Compound 35] ({CH2CO}-[dNMePhe(2,4-Me2)][Trp(6-Cl)][NMePhe(2-Me)]C-NH2; thioether N-4), half-maximal inhibition (IC50) was put at 20000 nM.

For another series, the target named is T3, SARS-CoV-2 main protease (Severe acute respiratory syndrome coronavirus 2, UniProt P0DTD1).
T3 construct: SARS-CoV-2 main protease
Nature of the series: SARS-CoV-2 main protease assay (fluorescence time-course). It is filed as biochemical. The following applies: 10-dose singlet, 3-fold serial dilution starting at 200 uM; increase in fluorescence signal. As for the experimental part: SARS-CoV-2 main protease: The compounds were tested in 10-dose IC50 singlet with a 3-fold serial dilution starting at 200 uM. The protease activities were monitored as a time-course measurement of the increase in fluorescence signal.
Take `O=C1C[C@H](Cc2c(F)c(F)c(F)c(F)c2F)NC(=O)[C@H](Cc2cccnc2)NC(=O)[C@H](Cc2cccc(C(F)(F)F)c2)NC(=O)Cc2ccccc2N1` [Compound 131]: half-maximal inhibition (IC50) was put at 4070 nM. `O=C1C[C@H](Cc2ccccc2Cl)NC(=O)[C@H](Cc2cccnc2)NC(=O)[C@H](Cc2cccc(Cl)c2)NC(=O)Cc2ccccc2N1` [Compound 132] gave an IC50 of 1250 nM. This IC50 is about 3.3-fold lower than that of the compound before. On to `Cc1ccccc1C[C@@H]1NC(=O)Cc2ccccc2NC(=O)C[C@H](Cc2ccccc2Cl)NC(=O)[C@H](Cc2cccnc2)NC1=O` [Compound 133], for which inhibition was half-maximal at 844 nM (IC50). In turn, `O=C1C[C@H](Cc2ccc(Br)cc2)NC(=O)[C@H](Cc2cccnc2)NC(=O)[C@H](Cc2cccc(Cl)c2)NC(=O)Cc2ccccc2N1` [Compound 134] displayed an IC50 of 1220 nM. The IC50 values of the last two compounds are within 1.5-fold of each other. Compound `Cc1cccc(C[C@H]2CC(=O)Nc3ccccc3CC(=O)N[C@@H](Cc3ccccc3C)C(=O)N[C@@H](Cc3cccnc3)C(=O)N2)c1` [Compound 135] returned an IC50 of 1470 nM. Consider `O=C1C[C@H](Cc2ccc(Cl)c(Cl)c2)NC(=O)[C@H](Cc2cccnc2)NC(=O)[C@H](Cc2cccc(C(F)(F)F)c2)NC(=O)Cc2ccccc2N1` [Compound 136], for which 1470 nM corresponded to half-maximal inhibition (IC50).

For the compound `O=C1C[C@H](Cc2ccc(Br)cc2)NC(=O)[C@H](Cc2cccnc2)NC(=O)[C@H](Cc2cccc(C(F)(F)F)c2)NC(=O)Cc2ccccc2N1` [Compound 137], the IC50 turned out to be 1270 nM. `Cc1cccc(C[C@H]2CC(=O)Nc3ccccc3CC(=O)N[C@@H](Cc3cccc(C(F)(F)F)c3)C(=O)N[C@@H](Cc3cccnc3)C(=O)N2)c1` [Compound 138] displayed an IC50 of 2140 nM. Still for that read-out and setting: with `Cc1ccccc1C[C@@H]1NC(=O)Cc2ccccc2NC(=O)C[C@H](Cc2c(F)c(F)c(F)c(F)c2F)NC(=O)[C@H](Cc2cccnc2)NC1=O` [Compound 139] the figure was 2370 nM; with `Cc1ccccc1C[C@@H]1NC(=O)Cc2ccccc2NC(=O)C[C@H](Cc2cc(F)c(F)cc2F)NC(=O)[C@H](Cc2cccnc2)NC1=O` [Compound 140], 1530 nM; with `O=C1C[C@H](Cc2ccc(F)cc2)NC(=O)[C@H](Cc2cccnc2)NC(=O)[C@H](Cc2cccc(Cl)c2)NC(=O)Cc2ccccc2N1` [Compound 141], 1840 nM. In the case of `Cc1ccccc1C[C@@H]1NC(=O)Cc2ccccc2NC(=O)C[C@H](Cc2ccc(Cl)c(Cl)c2)NC(=O)[C@H](Cc2cccnc2)NC1=O` [Compound 142], the 50% inhibitory concentration (IC50) is 1890 nM.

In the case of `O=C1C[C@H](Cc2cccc(Cl)c2)NC(=O)[C@H](Cc2cccnc2)NC(=O)[C@H](Cc2cccc(Cl)c2)NC(=O)Cc2ccccc2N1` [Compound 143], 2650 nM corresponded to half-maximal inhibition (IC50). Compound `O=C1C[C@H](Cc2ccccc2Cl)NC(=O)[C@H](Cc2cccnc2)NC(=O)[C@H](Cc2cccc(C(F)(F)F)c2)NC(=O)Cc2ccccc2N1` [Compound 144] had an IC50 of 1260 nM. The same measure, in the same setting: with `Cc1ccccc1C[C@@H]1NC(=O)Cc2ccccc2NC(=O)C[C@H](Cc2ccccc2)NC(=O)[C@H](Cc2cccnc2)NC1=O` [Compound 218] the figure was 17800 nM.

Test system in another series: not listed separately
Kind of series: in vitro. The following applies: PAMPA. Format: in vitro ADME. The text has this:
We measured the passive membrane diffusion of all 29 macrocycles designed with the two approaches using the parallel artificial membrane permeability assay (PAMPA) (FIGS. 3, 4, and 16). Almost all of the macrocycles were quite membrane permeable: 16 of the 29 had log(Papp)'s greater than −6, and only three were not detected in the acceptor well. Under the same conditions, the small molecule drug propranolol achieved log(Papp) of −5.36 (FIG. 16). As expected, designs with exposed polar groups, particularly side chain hydroxyls and primary amides, had lower permeabilities. Overall, the hydrogen-bond containing designs were more permeable than the torsionally-optimized based designs, likely due to fewer exposed backbone polar groups.
PAMPA: Stock solutions of each peptide were prepared gravimetrically by dissolving ca. 1-3 mg of peptide in either 100% MeOH or 100% DMSO to produce ca. 1-10 mM peptide solutions. These stock solutions were stored at 4° C. when not in use. Samples for PAMPA experiments and calibration curves were prepared by diluting these stock solutions to produce 1.2 mL of 20 uM peptide in PBS supplemented with either 5% DMSO, or 10% MeOH. […] The concentration of each peptide in the donor and acceptor wells was quantified by LCMS after approximately 19 hours. […]
A general note: The PAMPA barrier holds no transporters, so it reflects passive diffusion.
Usually Papp stands for a coefficient for how fast a substance crosses the barrier. Low readings indicate slow passage, high ones fast passage. `CC(C)NCC(O)COc1cccc2ccccc12` (centres unmarked) [propranolol] gave a Papp at 20 uM of 4.37 ×10⁻⁶ cm/s.
